{"source": "patent US9956198B2", "about": "“Furo[3,4-b]pyran compounds and pharmaceutical uses” (Victoria Link Limited, priority 2013, dated 2018)", "key": {"[1]": {"tested_on": "HL-60 (human leukaemia) cell line", "assay": "MTT cell proliferation assay, HL-60", "type": "cell-based", "conditions": "HL-60, MTT assay, 2 days, read-out: IC50, growth inhibition", "experimental": "(§1) Cancer assays were performed using MTT cell proliferation assays with three different immortalised cell lines: a human leukaemia cell line (HL-60), an ovarian cancer cell line (1A9) and a breast cancer cell line (MCF7).\n(§2) HL-60, 1A9 and MCF cells were cultured at 37° C. in a 5% CO2 in air atmosphere in RPMI-1640 medium supplemented with 10% fetal calf serum, 100 units/mL penicillin, and 100 units/mL streptomycin (with 0.1% insulin added to the medium for 1A9 and MCF7 cell cultures). An MTT cell proliferation assay was used that involved the reduction of 3-(4,5-dimethylthiazol-2-yl)-2,5-diphenoyltetrazolium bromide (MTT) by viable cells as previously described.^14 Cells were treated with compounds of the invention in 96-well plates (duplicate wells) for 2 days (for HL-60) or 3 days (for 1A9 or MCF7), then incubated with 5 mg/mL MTT in phosphate-buffered saline for 2 h. The blue crystals that formed were solubilised in 10% sodium dodecyl sulfate, 45% dimethylformamide and the absorbance of the solutions measured at 570 nm in a multiwell plate reader (EnSpire™ 2300 Multiplate Reader from Perkin Elmer, Waltham, USA. The half-maximal inhibitory concentration (IC50) was calculated from a concentration-response curve using Sigma Plot software v8 (Systat Software Inc. Point Richmond, Calif.)."}, "[2]": {"tested_on": "1A9 (ovarian cancer) cell line", "assay": "MTT cell proliferation assay, 1A9", "type": "cell-based", "conditions": "1A9, MTT assay, 3 days; read-out: IC50, growth inhibition", "experimental": "as §1, §2"}, "[3]": {"tested_on": "MCF7 (breast cancer) cell line", "assay": "MTT cell proliferation assay, MCF7", "type": "cell-based", "conditions": "Homo sapiens, 72 h, 3 days, read-out: IC50, growth inhibition", "experimental": "as §1, §2"}, "AMPK A2/B1/G1": {"biological_target": "AMPK A2/B1/G1 (Homo sapiens, UniProt P54646)", "sequence (P54646 whole entry)": "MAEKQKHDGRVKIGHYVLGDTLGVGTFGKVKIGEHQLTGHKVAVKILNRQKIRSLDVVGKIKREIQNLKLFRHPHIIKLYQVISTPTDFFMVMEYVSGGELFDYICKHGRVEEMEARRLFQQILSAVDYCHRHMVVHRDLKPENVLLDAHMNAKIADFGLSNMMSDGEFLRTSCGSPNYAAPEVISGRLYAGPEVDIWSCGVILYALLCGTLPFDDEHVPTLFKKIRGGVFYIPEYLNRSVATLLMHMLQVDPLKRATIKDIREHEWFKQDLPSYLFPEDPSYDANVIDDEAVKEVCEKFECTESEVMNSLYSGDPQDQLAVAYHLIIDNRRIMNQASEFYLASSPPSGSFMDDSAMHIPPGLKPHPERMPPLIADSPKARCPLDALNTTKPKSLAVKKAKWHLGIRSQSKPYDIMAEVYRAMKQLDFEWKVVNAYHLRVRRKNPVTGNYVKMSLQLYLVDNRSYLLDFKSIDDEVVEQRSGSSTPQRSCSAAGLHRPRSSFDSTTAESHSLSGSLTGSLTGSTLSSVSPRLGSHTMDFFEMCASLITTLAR", "sequence (Q9Y478 whole entry partner)": "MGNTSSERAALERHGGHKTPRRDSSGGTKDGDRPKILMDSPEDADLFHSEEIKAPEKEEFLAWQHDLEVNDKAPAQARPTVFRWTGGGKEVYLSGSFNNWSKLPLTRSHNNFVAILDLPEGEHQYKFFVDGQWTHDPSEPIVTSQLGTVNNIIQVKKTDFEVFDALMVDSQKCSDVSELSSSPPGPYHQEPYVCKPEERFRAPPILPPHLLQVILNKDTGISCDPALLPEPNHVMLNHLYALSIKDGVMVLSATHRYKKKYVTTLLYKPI", "sequence (P54619 whole entry partner)": "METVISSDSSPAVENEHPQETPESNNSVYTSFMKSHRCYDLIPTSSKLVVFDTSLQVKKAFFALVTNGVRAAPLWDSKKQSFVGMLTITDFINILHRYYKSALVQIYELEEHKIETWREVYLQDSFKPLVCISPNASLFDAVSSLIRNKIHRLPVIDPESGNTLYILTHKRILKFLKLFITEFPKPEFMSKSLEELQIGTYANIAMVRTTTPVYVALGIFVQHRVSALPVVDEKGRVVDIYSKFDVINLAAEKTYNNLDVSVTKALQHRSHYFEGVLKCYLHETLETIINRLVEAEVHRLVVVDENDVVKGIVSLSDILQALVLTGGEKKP", "assay": "SelectScreen kinase profiling, Z'-LYTE protocol", "type": "biochemical", "experimental": "(§3) Kinase inhibition assays were conducted by Life Technologies using their SelectScreen® Whole Panel ACCESS Biochemical Kinase Profiling Service. The Z'-LYTE® Screening Protocol was used to obtain the results for the following kinases: AMPK A2/B1/G1, BMX, BTK, MAPK14 (p38 alpha), PLK1, TXK. The LanthaScreen Protocol was used to obtain the result for the following kinase: NUAK2.\n(§4) Compound 10 was assessed for kinase inhibition by Life Technologies using the SelectScreen® Whole Panel ACCESS Biochemical Kinase Profiling Service. The Z'-LYTE® Screening Protocol was used to obtain the results for the following kinases: AMPK A2/B1/G1, BMX, BTK, MAPK14 (p38 alpha), PLK1, TXK. The LanthaScreen Protocol was used to obtain the result for the following kinase: NUAK2."}, "BMX": {"biological_target": "T1, BMX (Homo sapiens, UniProt P51813)", "T1 sequence (P51813 1-675)": "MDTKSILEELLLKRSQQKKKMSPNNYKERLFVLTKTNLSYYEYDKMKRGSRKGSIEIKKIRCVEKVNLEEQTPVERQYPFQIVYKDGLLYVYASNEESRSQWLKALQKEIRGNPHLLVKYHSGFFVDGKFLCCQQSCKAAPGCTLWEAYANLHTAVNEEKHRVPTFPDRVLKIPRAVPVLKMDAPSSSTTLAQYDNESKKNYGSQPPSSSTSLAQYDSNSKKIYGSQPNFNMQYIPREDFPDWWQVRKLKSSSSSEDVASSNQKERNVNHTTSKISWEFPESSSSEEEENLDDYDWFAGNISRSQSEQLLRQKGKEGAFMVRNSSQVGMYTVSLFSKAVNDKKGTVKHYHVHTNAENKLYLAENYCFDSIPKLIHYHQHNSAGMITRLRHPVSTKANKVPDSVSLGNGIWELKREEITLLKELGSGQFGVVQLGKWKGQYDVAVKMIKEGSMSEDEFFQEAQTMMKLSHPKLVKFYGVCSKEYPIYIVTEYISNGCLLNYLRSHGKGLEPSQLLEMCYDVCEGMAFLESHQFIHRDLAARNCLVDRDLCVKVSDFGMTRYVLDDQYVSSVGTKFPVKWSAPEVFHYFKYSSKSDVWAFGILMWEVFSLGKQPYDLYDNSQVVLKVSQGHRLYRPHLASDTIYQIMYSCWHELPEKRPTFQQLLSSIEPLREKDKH", "assay": "SelectScreen kinase profiling, Z'-LYTE protocol", "type": "biochemical", "experimental": "as §3, §4"}, "[4]": {"biological_target": "BTK (Bruton's tyrosine kinase) (Homo sapiens, UniProt Q06187)", "sequence (Q06187 whole entry)": "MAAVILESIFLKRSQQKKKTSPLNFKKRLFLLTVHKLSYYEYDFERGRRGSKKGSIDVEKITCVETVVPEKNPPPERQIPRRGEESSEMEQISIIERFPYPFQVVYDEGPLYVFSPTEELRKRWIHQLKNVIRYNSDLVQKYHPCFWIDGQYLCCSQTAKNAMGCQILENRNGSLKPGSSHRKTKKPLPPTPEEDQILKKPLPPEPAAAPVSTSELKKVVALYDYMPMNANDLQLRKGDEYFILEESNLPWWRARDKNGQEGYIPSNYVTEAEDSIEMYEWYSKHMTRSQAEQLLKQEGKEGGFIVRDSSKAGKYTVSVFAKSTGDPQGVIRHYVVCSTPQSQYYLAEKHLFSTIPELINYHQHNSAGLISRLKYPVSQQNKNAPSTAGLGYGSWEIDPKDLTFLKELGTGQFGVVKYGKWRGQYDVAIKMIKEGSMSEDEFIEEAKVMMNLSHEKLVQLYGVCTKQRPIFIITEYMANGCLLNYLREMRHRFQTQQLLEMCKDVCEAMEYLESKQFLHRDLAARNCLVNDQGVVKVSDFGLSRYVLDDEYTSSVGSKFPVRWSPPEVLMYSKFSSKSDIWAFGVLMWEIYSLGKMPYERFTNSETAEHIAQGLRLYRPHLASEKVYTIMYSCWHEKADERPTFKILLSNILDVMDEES", "assay": "SelectScreen kinase profiling, Z'-LYTE protocol", "type": "biochemical", "experimental": "as §3, §4"}, "MAPK14 (p38 alpha)": {"biological_target": "MAPK14 (p38 alpha) (Homo sapiens, UniProt Q16539)", "sequence (Q16539 whole entry)": "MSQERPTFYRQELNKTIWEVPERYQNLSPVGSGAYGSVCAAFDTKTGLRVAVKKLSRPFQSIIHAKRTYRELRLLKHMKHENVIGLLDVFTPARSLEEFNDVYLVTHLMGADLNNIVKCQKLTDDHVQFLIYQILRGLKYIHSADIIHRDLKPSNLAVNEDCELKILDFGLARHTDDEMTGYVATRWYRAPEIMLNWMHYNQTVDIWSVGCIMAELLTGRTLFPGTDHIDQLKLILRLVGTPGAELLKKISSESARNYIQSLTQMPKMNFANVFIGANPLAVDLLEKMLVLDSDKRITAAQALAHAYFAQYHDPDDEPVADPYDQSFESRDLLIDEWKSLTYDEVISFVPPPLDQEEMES", "assay": "SelectScreen kinase profiling, Z'-LYTE protocol", "type": "biochemical", "experimental": "as §3, §4"}, "PLK1": {"biological_target": "PLK1 (Homo sapiens, UniProt P53350)", "sequence (P53350 whole entry)": "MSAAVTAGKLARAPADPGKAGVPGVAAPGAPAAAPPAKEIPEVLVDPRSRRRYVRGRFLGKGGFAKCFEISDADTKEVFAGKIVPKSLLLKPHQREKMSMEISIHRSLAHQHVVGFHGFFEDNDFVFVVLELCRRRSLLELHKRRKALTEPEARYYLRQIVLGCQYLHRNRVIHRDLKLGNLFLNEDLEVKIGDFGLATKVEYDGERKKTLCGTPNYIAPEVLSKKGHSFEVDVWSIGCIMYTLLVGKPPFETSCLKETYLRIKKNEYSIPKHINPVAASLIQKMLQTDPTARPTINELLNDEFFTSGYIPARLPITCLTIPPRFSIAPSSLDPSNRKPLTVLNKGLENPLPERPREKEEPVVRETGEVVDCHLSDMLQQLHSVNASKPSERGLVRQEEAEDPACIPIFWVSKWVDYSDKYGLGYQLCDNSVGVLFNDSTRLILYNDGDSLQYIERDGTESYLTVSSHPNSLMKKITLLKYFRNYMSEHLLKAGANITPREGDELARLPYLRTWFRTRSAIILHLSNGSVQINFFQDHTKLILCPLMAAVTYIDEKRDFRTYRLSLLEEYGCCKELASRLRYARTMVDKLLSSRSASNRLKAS", "assay": "SelectScreen kinase profiling, Z'-LYTE protocol", "type": "biochemical", "experimental": "as §3, §4"}, "TXK": {"biological_target": "T2, TXK (Homo sapiens, UniProt P42681)", "T2 sequence (P42681 1-527)": "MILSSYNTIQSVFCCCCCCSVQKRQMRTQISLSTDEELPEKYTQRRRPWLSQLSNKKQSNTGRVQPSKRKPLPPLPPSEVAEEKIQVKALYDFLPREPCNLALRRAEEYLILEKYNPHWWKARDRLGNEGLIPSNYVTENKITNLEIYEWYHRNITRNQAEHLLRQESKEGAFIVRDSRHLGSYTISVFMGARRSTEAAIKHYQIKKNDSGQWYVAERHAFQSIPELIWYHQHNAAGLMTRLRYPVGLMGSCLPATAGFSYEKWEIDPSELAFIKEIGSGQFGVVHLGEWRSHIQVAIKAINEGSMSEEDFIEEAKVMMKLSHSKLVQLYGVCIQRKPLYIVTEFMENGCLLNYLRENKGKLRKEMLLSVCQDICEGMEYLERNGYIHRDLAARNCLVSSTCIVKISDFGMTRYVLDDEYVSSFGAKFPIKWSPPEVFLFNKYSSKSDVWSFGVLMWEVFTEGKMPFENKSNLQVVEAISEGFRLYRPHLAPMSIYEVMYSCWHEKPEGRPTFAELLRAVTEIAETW", "assay": "SelectScreen kinase profiling, Z'-LYTE protocol", "type": "biochemical", "experimental": "as §3, §4"}, "NUAK2": {"biological_target": "T3, NUAK2 (Homo sapiens, UniProt Q9H093)", "T3 sequence (Q9H093 1-628)": "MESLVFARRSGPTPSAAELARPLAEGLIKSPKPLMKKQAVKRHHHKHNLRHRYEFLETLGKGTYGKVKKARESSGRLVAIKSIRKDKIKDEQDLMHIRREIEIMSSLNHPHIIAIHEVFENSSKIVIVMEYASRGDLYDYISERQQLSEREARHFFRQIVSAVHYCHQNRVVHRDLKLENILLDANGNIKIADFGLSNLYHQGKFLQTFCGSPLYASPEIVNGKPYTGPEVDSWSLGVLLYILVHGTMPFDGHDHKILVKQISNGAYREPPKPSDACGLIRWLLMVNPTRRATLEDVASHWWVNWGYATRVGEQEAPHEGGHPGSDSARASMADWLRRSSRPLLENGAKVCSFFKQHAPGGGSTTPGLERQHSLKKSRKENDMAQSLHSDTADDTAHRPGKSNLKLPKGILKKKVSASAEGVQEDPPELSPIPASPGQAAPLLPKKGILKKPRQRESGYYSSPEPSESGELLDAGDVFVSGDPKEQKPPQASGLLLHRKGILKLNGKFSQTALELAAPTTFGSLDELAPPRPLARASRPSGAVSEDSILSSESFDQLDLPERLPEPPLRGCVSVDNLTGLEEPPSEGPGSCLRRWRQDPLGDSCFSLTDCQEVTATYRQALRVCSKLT", "assay": "SelectScreen kinase profiling, LanthaScreen protocol", "type": "biochemical", "experimental": "as §3, §4"}, "c-Src (sarcoma) kinase": {"biological_target": "c-Src (sarcoma) kinase (Homo sapiens, UniProt P12931)", "sequence (P12931 whole entry)": "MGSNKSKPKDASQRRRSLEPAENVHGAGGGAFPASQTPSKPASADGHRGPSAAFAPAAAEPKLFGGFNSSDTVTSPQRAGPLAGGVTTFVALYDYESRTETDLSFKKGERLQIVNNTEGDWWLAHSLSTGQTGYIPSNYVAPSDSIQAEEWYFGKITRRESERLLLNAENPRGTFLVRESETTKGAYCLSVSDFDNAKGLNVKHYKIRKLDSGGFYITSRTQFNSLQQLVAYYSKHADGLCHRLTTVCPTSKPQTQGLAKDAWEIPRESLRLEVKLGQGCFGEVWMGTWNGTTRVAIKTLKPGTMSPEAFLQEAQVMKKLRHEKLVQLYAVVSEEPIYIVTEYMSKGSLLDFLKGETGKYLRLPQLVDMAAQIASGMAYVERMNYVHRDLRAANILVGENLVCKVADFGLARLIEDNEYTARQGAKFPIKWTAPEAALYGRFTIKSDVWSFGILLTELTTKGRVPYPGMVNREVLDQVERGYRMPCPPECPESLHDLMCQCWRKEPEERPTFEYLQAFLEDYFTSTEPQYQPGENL", "conditions": "cited from earlier work"}, "[5]": {"tested_on": "PTH-induced bone resorption", "conditions": "cited from earlier work"}, "[6]": {"conditions": "read-out: Inhibition (IC50 at 10 μM)"}, "[7]": {"conditions": "single-point, read-out: percent inhibition"}}, "note": "pIC50: −log10 of the molar value. Like-named read-outs stand apart in the source and are kept apart here.", "data": [{"molecule": "(−)-TAN-2483B E-ethyl ester [Compound 14]", "values": [{"measurement": "pIC50", "setting": "[1]", "value": 5.66}, {"measurement": "pIC50", "setting": "[2]", "value": 5.47}]}, {"molecule": "CCOC(=O)/C=C\\[C@H]1O[C@H]2C(=C[C@H]1O)C(=O)O[C@H]2C", "note": "[Compound 10, (−)-TAN-2483B Z-ethyl ester]", "values": [{"measurement": "pIC50", "setting": "[1]; Homo sapiens, 48 h", "value": 5.44}, {"measurement": "pIC50", "setting": "[3]", "value": 5.05}, {"measurement": "inhibition at 10 µM", "setting": "AMPK A2/B1/G1; AMPK A2/B1/G1, at 10 μM, read-out: Inhibition (IC50 at 10 μM)", "value": 81, "unit": "%"}, {"measurement": "inhibition at 10 µM", "setting": "AMPK A2/B1/G1; AMPK A2/B1/G1, single-point, at 10 μM, read-out: percent inhibition", "value": 81, "unit": "%"}, {"measurement": "inhibition at 10 µM", "setting": "BMX; [6]", "value": 80, "unit": "%"}, {"measurement": "inhibition at 10 µM", "setting": "BMX; [7]", "value": 80, "unit": "%"}, {"measurement": "inhibition at 10 µM", "setting": "[4]; [6]", "value": 83, "unit": "%"}, {"measurement": "inhibition at 10 µM", "setting": "[4]; [7]", "value": 83, "unit": "%"}, {"measurement": "inhibition at 10 µM", "setting": "MAPK14 (p38 alpha); MAPK14 (p38 alpha), single-point, at 10 μM, read-out: percent inhibition", "value": 74, "unit": "%"}, {"measurement": "inhibition at 10 µM", "setting": "MAPK14 (p38 alpha); MAPK14, at 10 μM, read-out: Inhibition (IC50 at 10 μM)", "value": 74, "unit": "%"}, {"measurement": "inhibition at 10 µM", "setting": "PLK1; PLK1, at 10 μM, read-out: Inhibition (IC50 at 10 μM)", "value": 81, "unit": "%"}, {"measurement": "inhibition at 10 µM", "setting": "PLK1; PLK1, single-point, at 10 μM, read-out: percent inhibition", "value": 81, "unit": "%"}, {"measurement": "inhibition at 10 µM", "setting": "TXK; TXK1, at 10 μM, read-out: Inhibition (IC50 at 10 μM)", "value": 71, "unit": "%"}, {"measurement": "inhibition at 10 µM", "setting": "TXK; TXK, single-point, at 10 μM, read-out: percent inhibition", "value": 71, "unit": "%"}, {"measurement": "inhibition at 10 µM", "setting": "NUAK2; NUAK2, at 10 μM, read-out: Inhibition (IC50 at 10 μM)", "value": 76, "unit": "%"}, {"measurement": "inhibition at 10 µM", "setting": "NUAK2; NUAK2, single-point, at 10 μM, read-out: percent inhibition", "value": 76, "unit": "%"}]}, {"molecule": "C[C@@H]1OC(=O)C2=C[C@@H](O)[C@@H](/C=C/CO)O[C@@H]21", "note": "[Compound 19, Hydroxy-TAN-2483B]", "values": [{"measurement": "pIC50", "setting": "[1]; Homo sapiens, 48 h", "value": 4.38}]}, {"molecule": "C/C=C/[C@H]1O[C@H]2C(=C[C@H]1O)C(=O)O[C@H]2C", "note": "[(−)-TAN-2483B]", "values": [{"measurement": "inhibition of c-Src (sarcoma) kinase", "setting": "c-Src (sarcoma) kinase", "value": "inhibition"}, {"measurement": "inhibition of PTH-induced bone resorption", "setting": "[5]", "value": "inhibition"}]}, {"molecule": "C/C=C/[C@H]1O[C@@H]2C(=C[C@H]1O)C(=O)O[C@H]2C", "note": "[(−)-TAN-2483A]", "values": [{"measurement": "inhibition of c-Src (sarcoma) kinase", "setting": "c-Src (sarcoma) kinase", "value": "inhibition"}, {"measurement": "inhibition of PTH-induced bone resorption", "setting": "[5]", "value": "inhibition"}]}]}
